Earlier results in patent US20100167988A1, “ETHOXYPHENYLMETHYL INHIBITORS OF SGLT2” (AUSPEX PHARMACEUTICALS, INC., priority 2008, published 2010).

System: multiple CYP enzymes, including CYP1A1, CYP1A2, CYP2A6, CYP2C9, CYP2D6, and CYP3A4
Settings: recombinant CYP isoforms, in vitro

turnover: low
Structure (SMILES): CCOc1ccc(Cc2cc([C@@H]3O[C@H](CO)[C@@H](O)[C@H](O)[C@H]3O)ccc2Cl)cc1 [Dapagliflozin, (2S,3R,4R,5S,6R)-2-(3-(4-ethoxybenzyl)-4-chlorophenyl)-6-(hydroxymethyl)-tetrahydro-2H-pyran-3,4,5-triol]
